From patent publication US12390508B2, “Brain natriuretic peptide engrafted antibodies” (Boehringer Ingelheim International GmbH, priority 2018, dated 2025) come the findings set out here.

The target of series [1] is T1, insulin degrading enzyme (IDE) (Rattus norvegicus, UniProt P35559).
T1 sequence (P35559 42-1019 limits assumed): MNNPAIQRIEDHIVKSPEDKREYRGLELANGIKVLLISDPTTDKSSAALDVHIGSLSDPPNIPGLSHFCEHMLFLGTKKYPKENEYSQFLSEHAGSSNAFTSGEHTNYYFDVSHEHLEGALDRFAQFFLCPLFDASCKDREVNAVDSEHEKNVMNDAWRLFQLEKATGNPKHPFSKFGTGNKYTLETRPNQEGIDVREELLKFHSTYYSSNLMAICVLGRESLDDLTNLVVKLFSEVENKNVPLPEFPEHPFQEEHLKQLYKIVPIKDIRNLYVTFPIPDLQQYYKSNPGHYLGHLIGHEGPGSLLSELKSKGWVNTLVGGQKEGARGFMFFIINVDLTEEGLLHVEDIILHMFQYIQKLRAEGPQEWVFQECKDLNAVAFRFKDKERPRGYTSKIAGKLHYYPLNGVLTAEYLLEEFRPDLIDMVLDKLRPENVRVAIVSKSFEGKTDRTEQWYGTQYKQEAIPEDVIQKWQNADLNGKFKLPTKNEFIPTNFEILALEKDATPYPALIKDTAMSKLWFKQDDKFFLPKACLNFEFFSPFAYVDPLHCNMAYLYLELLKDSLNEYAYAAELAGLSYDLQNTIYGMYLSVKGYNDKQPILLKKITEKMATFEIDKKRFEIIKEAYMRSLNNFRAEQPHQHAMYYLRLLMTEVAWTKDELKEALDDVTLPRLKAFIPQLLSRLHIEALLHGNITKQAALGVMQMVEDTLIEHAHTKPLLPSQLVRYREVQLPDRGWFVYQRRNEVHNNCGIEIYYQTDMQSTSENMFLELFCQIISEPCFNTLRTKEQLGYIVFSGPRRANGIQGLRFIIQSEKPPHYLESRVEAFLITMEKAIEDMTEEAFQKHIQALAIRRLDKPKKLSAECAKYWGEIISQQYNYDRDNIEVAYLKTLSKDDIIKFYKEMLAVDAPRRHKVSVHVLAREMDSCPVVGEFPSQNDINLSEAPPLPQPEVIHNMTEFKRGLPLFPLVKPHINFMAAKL
Put plainly: Sensitivity towards proteolytic degradation by insulin degrading enzyme (IDE). As to conditions: 4 hours incubation with 0.6 μg/ml IDE at 37° C., then activity on the rat receptor cell line.

In series [2] the target is T2, neutral endopeptidase (NEP) (Homo sapiens, UniProt P08473).
T2 construct: purchased R&D Systems 1182-ZNC
Kind of series: Sensitivity towards proteolytic degradation by neutral endopeptidase (NEP). Format: in vitro ADME. Conditions: 4 hours incubation with 0.6 μg/ml NEP at 37° C., then activity on the rat receptor cell line.

The structures appear in SMILES notation. Positions of bridges follow the written chain, without caps; N, C: chain ends. Residues, ends and D or L forms follow the SMILES beside them.

T2 sequence (P08473 52-750 limits assumed): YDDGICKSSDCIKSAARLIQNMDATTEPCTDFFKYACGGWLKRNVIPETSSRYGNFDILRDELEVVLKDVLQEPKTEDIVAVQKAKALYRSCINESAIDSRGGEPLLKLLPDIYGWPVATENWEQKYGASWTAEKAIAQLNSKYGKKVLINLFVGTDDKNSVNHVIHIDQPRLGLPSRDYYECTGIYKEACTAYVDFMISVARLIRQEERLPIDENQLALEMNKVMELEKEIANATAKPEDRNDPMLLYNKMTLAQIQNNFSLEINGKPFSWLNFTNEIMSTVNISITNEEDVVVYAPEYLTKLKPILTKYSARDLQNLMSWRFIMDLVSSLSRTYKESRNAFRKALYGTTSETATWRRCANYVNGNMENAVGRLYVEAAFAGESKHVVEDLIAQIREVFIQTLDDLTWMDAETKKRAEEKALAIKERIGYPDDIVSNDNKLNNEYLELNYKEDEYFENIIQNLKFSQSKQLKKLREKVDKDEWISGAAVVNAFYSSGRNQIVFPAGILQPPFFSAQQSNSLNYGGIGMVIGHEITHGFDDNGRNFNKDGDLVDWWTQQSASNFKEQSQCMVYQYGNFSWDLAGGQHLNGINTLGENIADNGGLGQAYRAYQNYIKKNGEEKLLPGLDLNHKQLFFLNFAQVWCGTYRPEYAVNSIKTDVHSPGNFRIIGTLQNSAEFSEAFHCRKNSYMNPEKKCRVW

For `CC[C@H](C)[C@@H]1NC(=O)[C@H](CCCNC(=N)N)NC(=O)[C@H](CC(=O)O)NC(=O)[C@H]([C@@H](C)CC)NC(=O)[C@H](CCCCN)NC(=O)[C@H](CCC(N)=O)NC(=O)CNC(=O)[C@H](Cc2ccccc2)NC(=O)[C@@H](NC(=O)[C@H](CO)NC(=O)[C@H](CO)NC(=O)[C@H](CO)NC(=O)[C@H](Cc2c[nH]cn2)NC(=O)[C@H](C)NC(=O)[C@H](CCSC)NC(=O)[C@H](CCCCN)NC(=O)[C@H](CO)NC(=O)[C@@H](N)CC(N)=O)CSSC[C@@H](C(=O)N[C@@H](CC(=O)O)C(=O)NCC(=O)N[C@@H](CC(C)C)C(=O)N[C@@H](CCCNC(=N)N)C(=O)N[C@@H](CC(C)C)C(=O)N[C@@H](Cc2ccccc2)C(=O)O)NC(=O)CNC(=O)[C@H](CC(C)C)NC(=O)[C@H](CCCNC(=N)N)NC(=O)[C@H](CO)NC(=O)[C@H](C(C)C)NC(=O)[C@H](C)NC(=O)CNC1=O` [BNP, reference compound] (H-NSKMAHSSSCFGQKIDRIGAVSRLGCDGLRLF-OH; disulfide 10-26; N-terminus and C-terminus assumed), the “sensitivity towards proteolytic degradation by IDE” value in series [1] was “high sensitivity”. For the same compound, the “sensitivity towards proteolytic degradation by NEP” value in series [2] is listed as “high sensitivity”.
